Test results from ChEMBL document CHEMBL4613323, “Factor H-Inspired Design of Peptide Biomarkers of the Complement C3d Protein” (ACS Med Chem Lett, 2020).

Biological target: Complement C3 (Homo sapiens, UniProt P01024)
Assay: Binding affinity to recombinant human C3d assessed as dissociation constant incubated for 5 mins by microscale thermophoresis assay

Sequence of Complement C3 (P01024 23-667 limits assumed): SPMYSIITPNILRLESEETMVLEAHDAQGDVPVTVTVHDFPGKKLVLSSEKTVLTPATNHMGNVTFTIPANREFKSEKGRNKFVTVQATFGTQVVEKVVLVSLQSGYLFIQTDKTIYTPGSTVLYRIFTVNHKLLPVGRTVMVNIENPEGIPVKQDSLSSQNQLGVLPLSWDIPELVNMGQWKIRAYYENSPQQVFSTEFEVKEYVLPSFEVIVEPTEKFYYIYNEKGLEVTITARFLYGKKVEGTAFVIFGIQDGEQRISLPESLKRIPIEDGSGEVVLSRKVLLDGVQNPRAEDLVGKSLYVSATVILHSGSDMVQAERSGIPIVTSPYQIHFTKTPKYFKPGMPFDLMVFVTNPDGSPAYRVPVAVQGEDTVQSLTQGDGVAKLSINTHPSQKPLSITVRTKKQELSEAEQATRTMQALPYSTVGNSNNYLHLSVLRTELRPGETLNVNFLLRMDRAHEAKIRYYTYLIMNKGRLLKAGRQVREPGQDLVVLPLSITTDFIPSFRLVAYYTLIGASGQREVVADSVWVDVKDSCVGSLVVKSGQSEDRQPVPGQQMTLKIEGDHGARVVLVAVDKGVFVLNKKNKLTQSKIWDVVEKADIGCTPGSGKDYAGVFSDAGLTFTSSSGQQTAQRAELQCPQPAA
Sequence of Complement C3 (P01024 672-1663 limits assumed): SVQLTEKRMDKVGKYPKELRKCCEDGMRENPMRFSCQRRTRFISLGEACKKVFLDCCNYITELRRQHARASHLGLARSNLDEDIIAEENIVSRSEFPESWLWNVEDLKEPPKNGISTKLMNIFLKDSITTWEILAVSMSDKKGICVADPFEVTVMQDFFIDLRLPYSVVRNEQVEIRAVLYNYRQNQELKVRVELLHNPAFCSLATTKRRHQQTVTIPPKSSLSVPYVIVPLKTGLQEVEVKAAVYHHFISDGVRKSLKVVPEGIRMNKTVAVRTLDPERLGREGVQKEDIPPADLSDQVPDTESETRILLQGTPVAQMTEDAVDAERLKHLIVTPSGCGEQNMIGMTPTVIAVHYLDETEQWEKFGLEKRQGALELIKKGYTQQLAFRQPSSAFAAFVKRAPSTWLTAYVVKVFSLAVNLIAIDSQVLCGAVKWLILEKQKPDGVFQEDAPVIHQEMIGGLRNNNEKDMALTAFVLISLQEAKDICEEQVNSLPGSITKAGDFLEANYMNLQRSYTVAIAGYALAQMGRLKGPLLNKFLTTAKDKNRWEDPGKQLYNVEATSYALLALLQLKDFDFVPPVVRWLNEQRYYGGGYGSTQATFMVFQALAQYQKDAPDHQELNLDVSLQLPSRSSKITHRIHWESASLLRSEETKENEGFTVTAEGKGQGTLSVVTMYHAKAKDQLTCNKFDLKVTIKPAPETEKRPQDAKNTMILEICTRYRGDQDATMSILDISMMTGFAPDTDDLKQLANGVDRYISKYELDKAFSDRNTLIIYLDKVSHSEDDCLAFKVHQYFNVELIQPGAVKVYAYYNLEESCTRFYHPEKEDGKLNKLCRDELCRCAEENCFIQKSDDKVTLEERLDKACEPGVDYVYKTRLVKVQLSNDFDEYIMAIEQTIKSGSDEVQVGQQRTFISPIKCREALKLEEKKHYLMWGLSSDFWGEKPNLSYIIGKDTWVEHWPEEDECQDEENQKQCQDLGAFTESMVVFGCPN

Compound: CC(=O)NCC(=O)N[C@H]1CSSC[C@@H](C(=O)NCC(N)=O)NC(=O)[C@H](CCCNC(=N)N)NC(=O)[C@H](Cc2ccc(O)cc2)NC(=O)CNC(=O)[C@H](CCCNC(=N)N)NC(=O)[C@H](CCCCN)NC1=O (stereo in doubt; form 2)
- Kd: 61.6 µM
